{
  "source": "patent US20230365542A1",
  "about": "“Selective Agonists of 5-HT2A Receptor and Methods of Use” (Yale University, priority 2020, published 2023)",
  "key": {"5-HT2AR [1]": {"molecular_target": "T1, 5-HT2AR (Homo sapiens, UniProt P28223)", "T1 construct": "expressed in transfected cells; host or cells: Flp-In 293 T-Rex (tetracycline inducible)", "T1 sequence (P28223 whole entry)": "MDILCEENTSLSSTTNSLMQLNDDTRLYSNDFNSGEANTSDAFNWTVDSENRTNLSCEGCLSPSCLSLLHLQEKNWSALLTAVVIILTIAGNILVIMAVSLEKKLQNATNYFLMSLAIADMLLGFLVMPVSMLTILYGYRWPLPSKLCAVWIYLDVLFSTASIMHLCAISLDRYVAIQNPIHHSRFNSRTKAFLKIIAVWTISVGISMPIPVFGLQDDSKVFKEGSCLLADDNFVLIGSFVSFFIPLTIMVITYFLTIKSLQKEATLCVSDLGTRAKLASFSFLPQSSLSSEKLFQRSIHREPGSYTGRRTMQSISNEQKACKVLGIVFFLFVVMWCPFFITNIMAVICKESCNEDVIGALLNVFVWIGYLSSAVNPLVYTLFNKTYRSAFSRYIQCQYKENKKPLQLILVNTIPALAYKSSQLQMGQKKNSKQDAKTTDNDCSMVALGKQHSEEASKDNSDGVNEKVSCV", "test": "5-HT2AR binding affinity (Ki), Table 8", "conditions": "read-out: 5-HT2AR Ki"}, "5-HT2BR [2]": {"molecular_target": "T2, 5-HT2BR (Homo sapiens, UniProt P41595)", "T2 construct": "expressed in transfected cells; host or cells: Flp-In 293 T-Rex (tetracycline inducible)", "T2 sequence (P41595 whole entry)": "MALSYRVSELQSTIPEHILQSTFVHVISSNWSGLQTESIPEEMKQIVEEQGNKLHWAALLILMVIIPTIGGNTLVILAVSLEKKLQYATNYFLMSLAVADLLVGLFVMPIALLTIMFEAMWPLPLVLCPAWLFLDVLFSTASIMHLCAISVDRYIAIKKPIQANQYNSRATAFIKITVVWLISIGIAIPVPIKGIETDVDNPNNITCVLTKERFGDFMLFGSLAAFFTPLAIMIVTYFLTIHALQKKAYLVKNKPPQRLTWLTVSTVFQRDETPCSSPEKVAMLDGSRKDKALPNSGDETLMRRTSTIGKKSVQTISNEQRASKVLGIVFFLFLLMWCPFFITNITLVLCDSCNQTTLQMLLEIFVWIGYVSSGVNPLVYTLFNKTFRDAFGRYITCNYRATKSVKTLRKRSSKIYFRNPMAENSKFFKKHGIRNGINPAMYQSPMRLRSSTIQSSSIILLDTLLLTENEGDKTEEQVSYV", "test": "Calcium flux assay (FLIPR, Fluo-4), 5-HT2BR stable cell line", "type": "cell-based"}, "5-HT2CR [3]": {"molecular_target": "T3, 5-HT2CR (Homo sapiens, UniProt P28335)", "T3 sequence (P28335 33-458)": "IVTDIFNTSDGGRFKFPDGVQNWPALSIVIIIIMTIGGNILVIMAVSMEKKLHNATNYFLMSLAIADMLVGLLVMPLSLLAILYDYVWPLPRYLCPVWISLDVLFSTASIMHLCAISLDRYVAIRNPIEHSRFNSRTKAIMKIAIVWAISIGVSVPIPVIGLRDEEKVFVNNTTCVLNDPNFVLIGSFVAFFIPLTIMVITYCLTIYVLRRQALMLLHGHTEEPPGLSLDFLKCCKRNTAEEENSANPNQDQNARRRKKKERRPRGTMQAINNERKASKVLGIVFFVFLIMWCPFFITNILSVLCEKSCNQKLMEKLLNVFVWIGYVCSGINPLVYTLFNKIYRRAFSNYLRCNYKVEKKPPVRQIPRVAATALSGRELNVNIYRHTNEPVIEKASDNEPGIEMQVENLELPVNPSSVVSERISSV", "test": "5-HT2CR binding affinity (Ki), Table 8", "conditions": "read-out: 5-HT2CR Ki"}, "5-HT2CR [4]": {"molecular_target": "T3, 5-HT2CR", "test": "Calcium flux assay (FLIPR, Fluo-4), 5-HT2CR stable cell line", "type": "cell-based", "procedure": "(§3) Stable cell lines for 5-HT2AR, 5-HT2BR and 5-HT2CR generated using the Flp-In 293 T-Rex Tetracycline inducible system (Invitrogen). Tetracycline-induced cells were seeded in 384-well poly-L-lysine plates at a density of 10,000 cells/well in DMEM containing 1% dialyzed FBS at least 16-24 hr before the calcium flux assay. On the day of the assay, the cells were incubated (20 ul/well) for 1 hr at 37° C. with Fluo-4 Direct dye (Invitrogen) reconstituted in FLIPR buffer (1×HBSS, 2.5 mM probenecid, and 20 mM HEPES, pH 7.4). After dye loading, cells were placed in a FLIPR^TETRA fluorescence imaging plate reader (Molecular Dynamics). Drug dilutions were prepared at 3× final concentration in drug buffer (1×HBSS, 20 mM HEPES, 0.1% BSA, 0.01% ascorbic acid, pH 7.4) and aliquoted into 384-well plates and placed in the FLIPR^TETRA for drug stimulation. The fluidics module and plate reader of the FLIPR^TETRA were programmed to read baseline fluorescence for 10s (1 read/s), then 10 ul of drug/well was added and read for 5 min (1 read/s). Fluorescence in each well was normalized to the average of the first 10 reads (i.e., baseline fluorescence). Then, the maximum-fold increase, which occurred within the first 60 s after drug addition, was determined and fold over baseline was plotted as a function of drug concentration. Data were normalized to % 5-HT stimulation and analyzed using “log(agonist) vs. response” in GraphPad Prism 9.0."}, "5-HT2BR [5]": {"molecular_target": "T2, 5-HT2BR", "test": "5-HT2BR binding affinity (Ki), Table 8", "conditions": "read-out: 5-HT2BR Ki"}, "C57BL/6J mice [6]": {"tested_on": "C57BL/6J mice", "test": "Open field locomotion in mice", "type": "in vivo", "conditions": "i.p.", "experimental": "(§1) Open field: this apparatus has been described in the literature (Acta Crystallographica Section D, 2010, 66:486-501). Mice were placed into the open field for 30 min, injected with vehicle, (+)-LSD-(+)-tartrate (NIDA Drug Supply Program, Bethesda, MID), 38, or 33 (i.p.), and returned immediately to the open field for 30 min. Locomotion was monitored using Fusion Integra software (Omnitech, Columbus, OH).\n(§2) Statistics: Statistical analyses were performed with IBM SPSS Statistics 27 programs (IBM, Chicago, IL). The data are presented as means and standard errors of the mean. No sex effects were detected. One- or two-way ANOVA or repeated measures ANOVA (RMANOVA) were used, followed by Bonferroni corrected post-hoc analyses. A p<0.05 was considered significant. All behavioral results were plotted using GraphPad Prism."}, "C57BL/6J mice [7]": {"tested_on": "C57BL/6J mice", "test": "Head twitch response (HTR) in mice", "type": "in vivo", "conditions": "first 30 min after injection (i.p.)", "experimental": "as §1\nHead twitch response: HTRs were filmed in the open field and were scored following drug administration for 30 min as described in the literature (Acta Crystallographica Section D, 2019, 75:861-877).\nas §2"}, "5-HT2AR [8]": {"molecular_target": "T1, 5-HT2AR", "test": "Calcium flux assay (FLIPR, Fluo-4), 5-HT2AR stable cell line", "type": "cell-based", "procedure": "as §3"}, "[9]": {"tested_on": "wild-type (WT) and vesicular monoamine transporter 2 (VMAT2) heterozygous (HET) mice", "test": "Tail suspension test (immobility time) in wild-type and VMAT2 heterozygous mice", "type": "in vivo", "conditions": "30 min after administration; for immobility time during the tail suspension test: compared to vehicle", "procedure": "Tail suspension: This test was conducted as described in the literature (Acta Crystallographica Section D, 2010, 66:486-501). […] Immobility times were assessed over 6 min using MedAssociates software."}},
  "note": "“Also recorded” adds a separate entry of the source.",
  "data": [
    {"molecule": "C[C@@H]1C=C(c2c[nH]c3ncccc23)CN(C)C1", "note": "[compound 33, (R)-3-(1,5-dimethyl-1,2,5,6-tetrahydropyridin-3-yl)-1H-pyrrolo[2,3-b]pyridine]", "values": [
      {"measurement": "Ki", "setting": "5-HT2AR [1]", "value": 880, "unit": "nM"},
      {"measurement": "EC50", "setting": "5-HT2BR [2]; read-out: 5-HT2BR EC50", "value": 700, "unit": "nM"},
      {"measurement": "5-HT2BR Rmax ± S.E.M", "setting": "5-HT2BR [2]; value in parentheses", "value": "(50.5%"},
      {"measurement": "Ki", "setting": "5-HT2CR [3]", "value": 480, "unit": "nM"},
      {"measurement": "EC50", "setting": "5-HT2CR [4]; read-out: 5-HT2CR EC50", "value": 3250, "unit": "nM"},
      {"measurement": "5-HT2CR Rmax ± S.E.M", "setting": "5-HT2CR [4]; value in parentheses", "value": "(51.7%"},
      {"measurement": "Ki", "setting": "5-HT2BR [5]", "value": 440, "unit": "nM"},
      {"measurement": "distance travelled in the open field, locomotion post injection (31-60 min)", "setting": "C57BL/6J mice [6]; 1 mg/kg", "value": "do not enhance locomotion; also recorded: not different from one another"},
      {"measurement": "head twitch responses (HTRs)", "setting": "C57BL/6J mice [7]; 1 mg/kg", "value": "neither 38 nor 33 induced substantial HTRs; also recorded: not different from each other"},
      {"measurement": "EC50", "setting": "5-HT2AR [8]; bracketed value below EC50, read-out: 5-HT2AR pEC50 ± S.E.M (converted)", "value": 110, "unit": "nM"},
      {"measurement": "5-HT2AR Rmax ± S.E.M", "setting": "5-HT2AR [8]; value in parentheses", "value": "(73.3%"},
      {"measurement": "immobility time during the tail suspension test, HET mice versus WTs given the same treatment", "setting": "[9]; 1 mg/kg i.p., p=0.051", "value": "less time immobile"},
      {"measurement": "immobility time during the tail suspension test", "setting": "[9]; VMAT2 HET mice, 0.5 mg/kg i.p.", "value": "reduced immobility time significantly"},
      {"measurement": "immobility time during the tail suspension test", "setting": "[9]; VMAT2 HET mice, 1 mg/kg i.p., 1 mg/kg", "value": "restored wild-type levels of mobility; also recorded: reduced immobility time significantly"},
      {"measurement": "immobility time during the tail suspension test", "setting": "[9]; WT mice, 0.5 mg/kg i.p.", "value": "no effects"},
      {"measurement": "immobility time during the tail suspension test", "setting": "[9]; WT mice, 1 mg/kg i.p.", "value": "no effects"}
    ]},
    {"molecule": "CCN(CC)C(=O)[C@@H]1C=C2c3cccc4[nH]cc(c34)C[C@H]2N(C)C1", "note": "[LSD, reference compound]", "values": [
      {"measurement": "distance travelled in the open field, locomotion post injection (31-60 min)", "setting": "C57BL/6J mice [6]; 0.3 mg/kg LSD", "value": "significantly higher"},
      {"measurement": "head twitch responses (HTRs)", "setting": "C57BL/6J mice [7]; 0.3 mg/kg LSD", "value": "stimulated"}
    ]}
  ]
}
